Usually IC50 stands for the concentration that inhibits the measured activity by half.

Here are results for 10 compounds from ChEMBL document CHEMBL2203207, “Inhibition of monoamine oxidase by derivatives of piperine, an alkaloid from the pepper plant Piper nigrum, for possible use in Parkinson's disease” (Bioorg Med Chem Lett, 2012).

Each structure is given as a SMILES string.

For data set [1], the target named is T1, Amine oxidase [flavin-containing] B (Homo sapiens, UniProt P27338).
T1 sequence (P27338 whole entry): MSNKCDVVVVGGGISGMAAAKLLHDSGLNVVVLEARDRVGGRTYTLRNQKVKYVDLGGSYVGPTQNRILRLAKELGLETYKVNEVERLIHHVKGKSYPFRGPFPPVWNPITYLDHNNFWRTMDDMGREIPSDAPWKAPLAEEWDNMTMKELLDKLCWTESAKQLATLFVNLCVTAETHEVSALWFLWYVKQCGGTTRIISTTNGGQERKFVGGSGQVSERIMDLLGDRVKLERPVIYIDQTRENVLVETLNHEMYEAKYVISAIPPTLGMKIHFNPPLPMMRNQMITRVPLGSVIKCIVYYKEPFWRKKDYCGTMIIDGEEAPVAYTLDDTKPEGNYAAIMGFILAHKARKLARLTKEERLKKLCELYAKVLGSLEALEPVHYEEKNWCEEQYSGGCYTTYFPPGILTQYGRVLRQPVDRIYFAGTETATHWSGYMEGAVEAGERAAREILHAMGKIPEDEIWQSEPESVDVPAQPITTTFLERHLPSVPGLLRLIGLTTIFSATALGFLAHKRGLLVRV
As to the kind of experiment: Inhibition of MAO-B assessed as inhibition of kyneuramine conversion to 4-hydroxyquinoline after 20 mins by fluorescence assay.

For data set [2], the target named is T2, Amine oxidase [flavin-containing] A (Homo sapiens, UniProt P21397).
T2 sequence (P21397 whole entry): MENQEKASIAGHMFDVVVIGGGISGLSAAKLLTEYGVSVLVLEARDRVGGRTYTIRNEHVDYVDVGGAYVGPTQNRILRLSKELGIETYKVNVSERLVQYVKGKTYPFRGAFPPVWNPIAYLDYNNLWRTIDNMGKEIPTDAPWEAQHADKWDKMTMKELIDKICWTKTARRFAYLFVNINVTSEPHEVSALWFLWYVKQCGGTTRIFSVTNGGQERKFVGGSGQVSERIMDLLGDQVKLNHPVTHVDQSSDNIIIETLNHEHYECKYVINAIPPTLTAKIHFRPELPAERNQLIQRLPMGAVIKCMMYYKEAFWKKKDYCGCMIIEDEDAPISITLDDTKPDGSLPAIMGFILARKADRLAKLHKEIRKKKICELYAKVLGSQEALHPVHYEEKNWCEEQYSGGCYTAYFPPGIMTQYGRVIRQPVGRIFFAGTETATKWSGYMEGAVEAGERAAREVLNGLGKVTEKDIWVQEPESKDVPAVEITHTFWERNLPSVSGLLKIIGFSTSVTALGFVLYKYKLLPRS
The experiment in a line: Inhibition of MAO-A assessed as inhibition of kyneuramine conversion to 4-hydroxyquinoline after 20 mins by fluorescence assay.

The target of data set [3] is T3, Albumin (Bos taurus, UniProt P02769). As to the kind of experiment: Binding affinity to bovine serum albumin at 16 uM by fluorescence assay. Type of data set: ADME. Particulars: cattle, isolated protein.
For data set [4], the target named is T3, Albumin. The experiment in a line: Binding affinity to bovine serum albumin at 8.9 uM by fluorescence assay. Type of data set: ADME. The conditions noted are these: cattle, isolated protein.

T3 sequence (P02769 whole entry): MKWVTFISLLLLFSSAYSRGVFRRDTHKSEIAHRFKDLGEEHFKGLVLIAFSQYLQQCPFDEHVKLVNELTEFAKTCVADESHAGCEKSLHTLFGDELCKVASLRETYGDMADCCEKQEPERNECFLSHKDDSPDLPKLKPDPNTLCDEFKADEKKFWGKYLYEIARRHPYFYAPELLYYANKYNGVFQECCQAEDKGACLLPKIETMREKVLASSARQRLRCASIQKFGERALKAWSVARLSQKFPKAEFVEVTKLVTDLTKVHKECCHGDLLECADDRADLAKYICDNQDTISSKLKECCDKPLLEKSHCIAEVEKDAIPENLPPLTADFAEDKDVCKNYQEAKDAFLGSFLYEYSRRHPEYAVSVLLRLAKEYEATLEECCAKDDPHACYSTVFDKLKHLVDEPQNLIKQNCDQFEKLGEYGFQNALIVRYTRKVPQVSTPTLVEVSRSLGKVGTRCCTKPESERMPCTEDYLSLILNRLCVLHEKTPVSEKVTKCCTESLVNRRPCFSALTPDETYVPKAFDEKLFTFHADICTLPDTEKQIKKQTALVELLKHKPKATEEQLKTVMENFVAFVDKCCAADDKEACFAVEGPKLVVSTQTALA

For `O=C(/C=C/c1ccc2c(c1)OCO2)NC1CCCCC1`, the values for the IC50 in data set [1] and in data set [2] were 0.666 µM and over 100 µM, respectively.
Take `O=C(CN1CCCCC1)c1ccc2c(c1)OCO2`: the IC50 was 3.18 µM in data set [1] and over 100 µM in data set [2].
For `S=C(c1ccc2c(c1)OCO2)N1CCCCC1`, in that order: 15.4 µM and over 100 µM.
Regarding `O=C(/C=C/c1ccc2c(c1)OCO2)NC1CCCC1`, the figures for the IC50 in data set [1] and in data set [2] were 1.13 µM and over 100 µM, respectively.
For `O=C(CCN1CCCCC1)c1ccc2c(c1)OCO2`, in that order: 3.43 µM and over 100 µM.
For `O=C(c1ccc2c(c1)OCO2)N1CCCCCC1`, in that order: over 100 µM and over 100 µM.
For `O=C(/C=C/c1ccc2c(c1)OCO2)N1CCCC1`, in that order: 4.89 µM and over 100 µM.
As for `CC1CCN(C(=O)/C=C/c2ccc3c(c2)OCO3)CC1`, the Activity in data set [3] was 50%. For the same compound, the IC50 in data set [1] is 0.497 µM; in data set [2], over 100 µM.
For `O=C(/C=C/C=C/c1ccc2c(c1)OCO2)N1CCCCC1` [PIPERINE], the Activity in data set [4] stood at 50%. In addition, the figures for the IC50 in data set [1] and in data set [2] were 0.483 µM and 59 µM, respectively.
Regarding `O=C(/C=C/c1ccc2c(c1)OCO2)N1CCOCC1`, the IC50 in data set [1] was 6.39 µM; in data set [2] it was over 100 µM.
